The values that follow come from PMC6981941 (International Journal of Molecular Sciences, 2019).

Assay [1] addresses T1, YpHddC (Yersinia pseudotuberculosis, UniProt Q8GJ90).
T1 construct: gene hddC

Assay [2] has as its target T1, YpHddC. This is another data set of the same source.

T1 sequence (Q8GJ90 1-225 limits assumed): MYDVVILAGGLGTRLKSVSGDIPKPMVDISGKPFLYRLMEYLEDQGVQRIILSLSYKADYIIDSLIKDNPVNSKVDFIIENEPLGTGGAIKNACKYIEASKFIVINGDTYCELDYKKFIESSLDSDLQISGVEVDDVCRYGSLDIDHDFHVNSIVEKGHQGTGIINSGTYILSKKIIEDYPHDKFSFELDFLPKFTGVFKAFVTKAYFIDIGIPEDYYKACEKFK

`Nc1nc2c(ncn2[C@@H]2O[C@H](COP(=O)(O)OP(N)(=O)O)[C@@H](O)[C@H]2O)c(=O)[nH]1` [GMPPN]: the “X-ray crystal structure, 1.55 Å” value at YpHddC [1] was “The extra densities were well matched with one magnesium, one GMPPN (Figure A1)”.
Consider `Nc1nc2c(ncn2[C@@H]2O[C@H](COP(=O)(O)OP(=O)(O)OP(=O)(O)O)[C@@H](O)[C@H]2O)c(=O)[nH]1` [GTP], for which the “malachite green assay with pyrophosphatase” value on YpHddC [2] is “The main molecular property of YpHddC is its GTP preference”.
On the same count and under the same terms, under `O=P(O)(O)O[C@H]1O[C@H](CO)[C@@H](O)[C@H](O)[C@@H]1O` [αM1P] stands “we used α-D-Mannose-1-phosphate (αM1P) purchased from Sigma for a substrate”.
